Legend:
in vivo = details: mouse, in vivo, sc, TI (Therapeutic Index), 001/173, LD50/ED50, mice s.c.
Description: (§1) (J. Buus Lassen, European Journal of Pharmacology 47, 351-358 (1978)). See also Squires in Acta Pharmacol. et Toxicol, 1972, 31 Suppl. 1,35 for a description of a further procedure for measurement of the same 5-HT uptake-inhibitory phenomenon.

[1] = Acute Toxicity in Mice (Procedure/Test 001); assay type: in vivo; details: mouse, in vivo, sc, lethality at 24 hours, water-soluble salt
Description: (§2) II. Acute Toxicity in Mice (Procedure 001)
(§3) Results are expressed as LD50 = . . . mg/kg s.c.

5-HT uptake = experiment: Potentiation of 5-HTP (5-Hydroxytryptophane) induced hypermotility in mice (Procedure/Test 173); 5-HT potentiation or 5-HT uptake-inhibition; assay type: in vivo, mice (female, NMRI strain); details: for ED (2-fold activity of controls): Mus musculus, sc, read-out: Test 173: dose increasing the activity to double the activity of controls receiving 5-HTP alone (ED), mice, s.c.; for FG 7080 is better by: 5-HT Potentiation Factor: factor by which FG 7080 is better than the listed compound; for FG 7080 is better by: 5-HT Potentiation %: percent by which FG 7080 is better than the listed compound
Description: as §1
I. Potentiation of 5-HTP (5-Hydroxytryptophane) induced hypermotility in mice (Procedure 173)
(§4) This behavior is characterized by continuous jerky locomotion, head movements from side to side, abduction of the hind limbs, tremor, and lordosis.
Measurement of the motility after administration of test drugs to 5-HTP-pretreated mice is therefore used as a test for 5-HT-potentiation, which most probably proceeds through an inhibition of 5-HT uptake.
Method: Female mice of the NMRI strain weighing 20-22 g are used. The controls receive 5-HTP 150 mg/kg (15 ml/kg) i.p. (i.p.=intraperitoneally) and thirty (30) minutes later physiological saline (20 ml/kg) s.c. (s.c.=subcutaneously). The motility is measured by an Animex™ motimeter 45-75 minutes after 5-HTP administration. The test animals received test substances s.c. (20 ml/kg) instead of physiological saline. Five groups of two (2) mice are used for control and per dose of each test drug. the test substance is dosed according to the dose scale 1, 1.6, 2.5, 4, 6.3, and 10 mg/kg etc.
The best straight line is fitted through the points in a coordinate system (abscissa log dose, ordinate log activity). […] The activity of controls is investigated in thirty (30) groups of two (2) mice.

mice [2] = experiment: Acute Toxicity in Mice (Procedure/Test 001); assay type: in vivo; details: s.c., lethality at 24 hours, water-soluble salt, 1440 min
Description: as §2, §3

mice [3] = experiment: in vivo; details: for FG 7080 is better by: T.I. Factor: factor by which FG 7080 is better than the listed compound; for FG 7080 is better by: T.I. %: percent by which FG 7080 is better than the listed compound; for TI (Therapeutic Index), 001/173: LD50/ED50, mice s.c.
Description: as §1

mice [4] = details: Reference 6; cited from earlier work
[5] = References 1-4, cited from earlier work
mice [6] = experiment: Locomotor activity / behavior in mice after 5-HTP, with or without pretreatment (background of Procedure 173); assay type: in vivo
Description: as §4
Therefore, increased 5-HT in brain seems to be necessary for development of the abnormal behavior, but catecholamine release is probably not related to hyperactivity.

[7] = 5-HTP 150 mg/kg i.p. 30 min before, motility 45-75 min after 5-HTP, water-soluble salt
[8] = versus (+) trans isomer FG 8035

COc1ccc(OC[C@@H]2CN(C)CC[C@H]2c2ccccc2)cc1 (relative stereo) [FG 4932, reference compound]
selectivity ratio (in vivo): 13 | LD50 at 24 h [1]: 100 mg/kg | ED (2-fold activity of controls) (5-HT uptake; [7]): 7.7 mg/kg

COc1ccc(OC[C@@H]2CNCC[C@H]2c2ccccc2)cc1 (single isomer, unassigned) [FG 4996, reference compound]
selectivity ratio (in vivo): 14 | Test 001: LD50 (mice [2]): 125 mg/kg | ED (2-fold activity of controls) (5-HT uptake; [7]): 9 mg/kg

COc1ccc(OC[C@@H]2CN(C)CC[C@H]2c2ccc(F)cc2)cc1 (relative stereo) [FG 98-I]
FG 7080 is better by: T.I. Factor (mice [3]): 2.17 | FG 7080 is better by: T.I. % (mice [3]): 217% | selectivity ratio (in vivo): 461 | LD50 at 24 h [1]: 600 mg/kg | ED (2-fold activity of controls) (5-HT uptake; [7]): 1.3 mg/kg | FG 7080 is better by: 5-HT Potentiation Factor (5-HT uptake): 1.3 | FG 7080 is better by: 5-HT Potentiation % (5-HT uptake): 130%

COc1ccc(OC[C@@H]2CNCC[C@H]2c2ccc(F)cc2)cc1 (single isomer, unassigned) [FG 7080, (-)-trans-4-(4-fluorophenyl)-3-(4-methoxyphenoxy)methylpiperidine]
TI (Therapeutic Index), 001/173 (mice [3]): 1000 | Therapeutic Index compared with most structurally closely-related compounds, in words (mice [3]; Table I comparison): even more remarkably and unpredictably superior | superior as to Therapeutic Index, as % (mice [3]; versus FG 4996): > 7100% | superior by a factor as to Therapeutic Index (mice [3]; versus FG 4996): greater than 71 times | Therapeutic Index, as % (mice [3]; versus FG 7006): > 5500% | Therapeutic Index, times as great (mice [3]; versus FG 7006): more than 55 times | Therapeutic Index, as % (mice [3]; versus FG 8035): > 4100% | Therapeutic Index, times as great (mice [3]; versus FG 8035): more than 41 times | LD50 at 24 h [1]: 1000 mg/kg | ED (2-fold activity of controls) (5-HT uptake; [7]): 1 mg/kg | 5-HT potentiation compared with most structurally closely-related compounds, in words (5-HT uptake; Table I comparison): remarkably and unpredictably superior | times as active in 5-HT potentiation (5-HT uptake; [8]): approximately 22 times | times as active in 5-HT potentiation, as % (5-HT uptake; [8]): ~2200% | superior as to 5-HT potentiation, as % (5-HT uptake; versus FG 4996): ~900% | superior by a factor as to 5-HT potentiation (5-HT uptake; versus FG 4996): approximately 9 times | 5-HT potentiation activity, as % (5-HT uptake; versus FG 7006): ~2000% | 5-HT potentiation activity, times as great (5-HT uptake; versus FG 7006): approximately 20 times

NNCc1cccc(O)c1 [3-hydroxybenzylhydrazine]
effect of pretreatment on the hyperactivity (5-HTP plus 5-HT-uptake blocker) (mice [4]): inhibited it significantly

CC(N)(Cc1ccc(O)cc1)C(=O)O (stereo not drawn) [α-methyl-p-tyrosine]
effect of pretreatment on the hyperactivity (5-HTP plus 5-HT-uptake blocker) (mice [4]): does not influence this hyperactivity

CC(=O)O.COc1ccc(OC[C@@H]2CNCC[C@H]2c2ccc(F)cc2)cc1 (single isomer, unassigned) [FG 8035, (+)-trans-4-(4-fluorophenyl)-3-((4-methoxyphenoxy)methyl)piperidine acetate]
TI (Therapeutic Index), 001/173 (mice [3]): 24 | LD50 at 24 h [1]: 530 mg/kg | ED (2-fold activity of controls) (5-HT uptake; [7]): 22 mg/kg

COc1ccc(OC[C@@H]2CN(C)CC[C@H]2c2ccccc2)cc1 (single isomer, unassigned) [FG 4962, reference compound]
TI (Therapeutic Index), 001/173 (mice [3]): 53 | FG 7080 is better by: T.I. Factor (mice [3]): 19.87 | FG 7080 is better by: T.I. % (mice [3]): 1887% | Test 001: LD50 (mice [2]): 200 mg/kg | FG 7080 is better by: 5-HT Potentiation Factor (5-HT uptake): 3.8 | Test 173: dose increasing the activity to double the activity of controls receiving 5-HTP alone (ED) (5-HT uptake; mice, s.c., 5-HTP 150 mg/kg i.p. 30 min before, motility 45-75 min after 5-HTP, water-soluble salt): 3.8 mg/kg | FG 7080 is better by: 5-HT Potentiation % (5-HT uptake): 380%

CN1CC[C@@H](c2ccc(F)cc2)[C@H](COc2ccc3c(c2)OCO3)C1 (single isomer, unassigned) [FG 7043, reference compound]
selectivity ratio (in vivo): 63 | LD50 at 24 h [1]: 250 mg/kg | ED (2-fold activity of controls) (5-HT uptake; [7]): 4 mg/kg

Fc1ccc([C@@H]2CCNC[C@H]2COc2ccc3c(c2)OCO3)cc1 (single isomer, unassigned) [FG 7051]
LD50 at 24 h [1]: 285 mg/kg

N[C@@H](Cc1c[nH]c2ccc(O)cc12)C(=O)O [5-HTP, 5-Hydroxytryptophane]
concentration of NA and DA ([5]; high doses, parenteral): decrease the concentration of NA and DA | brain concentration of 5-HT ([5]; parenteral treatment): increases the brain concentration of 5-HT | motility / locomotor activity (mice [6]; 5-HTP 150 mg/kg): producing a small decrease of motility | motility / locomotor activity (mice [6]; 5-HTP 600 mg/kg): increasing the activity

COc1ccc(OC[C@@H]2CN(C)CC[C@H]2c2ccc(F)cc2)cc1.Cl (single isomer, unassigned) [FG 8032, (+)-trans-4-(4-fluorophenyl)-3-[(4-methoxyphenoxy)methyl]-1-methylpiperidine hydrochloride]
TI (Therapeutic Index), 001/173 (mice [3]): 17 | FG 7080 is better by: T.I. Factor (mice [3]): 58.82 | FG 7080 is better by: T.I. % (mice [3]): 5882% | LD50 at 24 h [1]: 400 mg/kg | ED (2-fold activity of controls) (5-HT uptake; [7]): 23 mg/kg | FG 7080 is better by: 5-HT Potentiation Factor (5-HT uptake): 23 | FG 7080 is better by: 5-HT Potentiation % (5-HT uptake): 2300%

COc1ccc(OC[C@@H]2CN(C)CC[C@H]2c2ccc(F)cc2)cc1 (single isomer, unassigned) [FG 8033, (-)-trans-4-(4-fluorophenyl)-3-[(4-methoxyphenoxy)-methyl]-1-methyl-piperidine]
TI (Therapeutic Index), 001/173 (mice [3]): 800 | LD50 at 24 h [1]: 400 mg/kg | ED (2-fold activity of controls) (5-HT uptake; [7]): 0.5 mg/kg

COc1ccc(OC[C@@H]2CN(C)CC[C@H]2c2ccccc2)cc1 (single isomer, unassigned) [FG 4963, reference compound]
TI (Therapeutic Index), 001/173 (mice [3]): 134 | FG 7080 is better by: T.I. Factor (mice [3]): 7.46 | FG 7080 is better by: T.I. % (mice [3]): 746% | LD50 at 24 h [1]: 375 mg/kg | ED (2-fold activity of controls) (5-HT uptake; [7]): 2.8 mg/kg | FG 7080 is better by: 5-HT Potentiation Factor (5-HT uptake): 2.8 | FG 7080 is better by: 5-HT Potentiation % (5-HT uptake): 280%
